{"source": "patent US8541235B2", "about": "“Modified reconstituted basement membrane composition for assay system” (Corning Incorporated, priority 2003, dated 2013)", "key": {"HUVEC tube formation [1]": {"system": "HUVEC tube formation", "experiment": "Endothelial cell tube formation assay, stimulator studies on modified matrix", "assay_type": "cell-based, human", "conditions": "modified matrix (inventive), total tube length, n=4", "protocol": "(§1) With reference to FIG. 1, angiogenesis stimulators can be evaluated for their ability to enhance HUVEC tube formation using the compositions and cell culturing systems of the present invention. […] The bottom surface of the wells are shown as coated with the modified matrix composition of the present invention. On day 1, a potential angiogenesis stimulator is added to the coated surface, along with endothelial cells in cell medium. […] In inhibitor studies, the potential inhibitor is included in a well, in addition to at least one known stimulator and the endothelial cells in cell medium. After an appropriate incubation period, typically 24 hours at 37° C./5% CO2 (day 2), images of the wells are acquired, and tube length is quantified as a measure of cell tube formation.\nKnown stimulators were chosen to evaluate the performance of an inventive basement membrane composition vs. a prior basement membrane composition. The chosen stimulators were bFGF and spinosine-1-phosphate (S1P). […]\nAt the end of each assay, assay medium was removed and plates were washed once with HBSS. […] Total tube length of each well was measured using a revised (from previous) MetaMorph® Journal. Excel data was imported and analyzed using BD Gentest MPM/ADMET Software Program from BD Biosciences Discovery Labware. […]"}, "HUVEC tube formation [2]": {"system": "HUVEC tube formation", "experiment": "Endothelial cell tube formation assay, inhibitor studies on modified matrix (tube formation induced by bFGF or S1P)", "assay_type": "cell-based, human", "conditions": "for Effect on S1P induced HUVEC tube formation: S1P 1 μM; for IC50: Homo sapiens, HUVEC", "protocol": "as §1\nKnown stimulators were chosen to evaluate the performance of an inventive basement membrane composition vs. a prior basement membrane composition. The chosen stimulators were bFGF and spinosine-1-phosphate (S1P). Coated plates prepared as described above in Example 2 were thawed at about 4° C. for a period of about 4 to 5 hours. The components of the composition were then allowed to polymerize at 37° C., 5% CO2 for approximately 30 minutes immediately before assay setup. For stimulator studies, HUVEC (P3-P5) were harvested at about 70% cell confluence. About 50 μl of cells at 4×10^5/ml in 0.1% FBS/EBM-2 medium supplemented with or without the angiogenesis stimulators were seeded onto 96-well plates containing the pre-solidified (i.e., polymerized) modified reconstituted basement membrane composition (inventive) or a standard Matrigel® matrix (BD Growth Factor Reduced Matrigel® Matrix). The assembled assays were allowed to incubate in a 37° C. incubator with 5% CO2 for approximately 16 to 18 hours. Compounds were dissolved in DMF or water according to manufacturer's instructions.\nAt the end of each assay, assay medium was removed and plates were washed once with HBSS. 50 μl Calcein AM at 8 μg/ml in HBSS was added to each well and plates were incubated in a 37° C./5% CO2 incubator for 35 minutes followed by washing once in HBSS. Images were acquired with a 2× objective lens on an automated Gen-1 Cell-based Screening System (Universal Imaging Corporation™). Total tube length of each well was measured using a revised (from previous) MetaMorph® Journal. Excel data was imported and analyzed using BD Gentest MPM/ADMET Software Program from BD Biosciences Discovery Labware.\nInhibitor studies were performed as generally described in Example 4, except that for these studies, an inhibitor was included in the assay, in addition to a known stimulator. Data was obtained on the modified matrix (inventive). […] Stimulators, bFGF or S1P, were added to HUVECs at 20 ng/ml and 1 μM, respectively. Suramin of indicated concentrations was added to HUVEC in bFGF or S1P prior to adding the mixtures to each well. Each data point represents the mean+/−standard deviation (n=4).\nWith reference now to FIG. 5, the effects of inhibitors (SU5402 and Suramin) on HUVEC tube formation induced by stimulators (bFGF and S1P) is shown. Data was obtained on the modified matrix (inventive). Stimulators, bFGF or S1P, were added to HUVECs in EBM-2 containing 0.1% FBS at a final concentration of 20 ng/ml and 1 μM, respectively. Suramin at 15 μM (in medium) or SU5402 at 25 μM (in 0.1% DMF) were added to HUVECs in 0.1% FBS, or bFGF, or S1P, prior to adding the mixtures to the wells. […] Each bar represents the mean+/−standard deviation (n=4)."}}, "note": "Read-outs that look alike come from different tables or passages of the source."}
{"molecule": "CCCCCCCCCCCCC/C=C/[C@@H](O)[C@@H](N)COP(=O)(O)O", "note": "[S1P, sphinosine-1-phosphate]", "values": [{"measurement": "EC50", "setting": "HUVEC tube formation [1]; read-out: EC50 in inducing HUVEC tube formation", "result": 0.319, "unit": "µM"}]}
{"molecule": "Cc1c[nH]c(/C=C2\\C(=O)Nc3ccccc32)c1CCC(=O)O", "note": "[SU5402]", "values": [{"measurement": "Effect on S1P induced HUVEC tube formation", "setting": "HUVEC tube formation [2]; SU5402 at 25 μM (in 0.1% DMF), modified matrix, FIG. 5", "result": "partially inhibited"}, {"measurement": "Effect on HUVEC tube formation stimulated by bFGF", "setting": "HUVEC tube formation [2]; SU5402 at 25 μM (in 0.1% DMF), bFGF 20 ng/ml, modified matrix, FIG. 5", "result": "completely inhibited"}]}
{"molecule": "Cc1ccc(C(=O)Nc2ccc(S(=O)(=O)O)c3cc(S(=O)(=O)O)cc(S(=O)(=O)O)c23)cc1NC(=O)c1cccc(NC(=O)Nc2cccc(C(=O)Nc3cc(C(=O)Nc4ccc(S(=O)(=O)O)c5cc(S(=O)(=O)O)cc(S(=O)(=O)O)c45)ccc3C)c2)c1", "note": "[Suramin]", "values": [{"measurement": "IC50", "setting": "HUVEC tube formation [2]; read-out: IC50 of inhibition of tube formation stimulated by S1P", "result": 10.6, "unit": "µM"}, {"measurement": "IC50", "setting": "HUVEC tube formation [2]; read-out: IC50 of inhibition of tube formation stimulated by bFGF", "result": 7.3, "unit": "µM"}, {"measurement": "Effect on S1P induced HUVEC tube formation", "setting": "HUVEC tube formation [2]; Suramin at 15 μM (in medium), modified matrix, FIG. 5", "result": "inhibited"}, {"measurement": "Effect on bFGF induced HUVEC tube formation", "setting": "HUVEC tube formation [2]; Suramin at 15 μM (in medium), bFGF 20 ng/ml, modified matrix, FIG. 5", "result": "inhibited"}]}
{"molecule": "bFGF: known angiogenesis stimulator; fibroblast growth factor (basic FGF)", "values": [{"measurement": "EC50 in inducing HUVEC tube formation", "setting": "HUVEC tube formation [1]", "result": 1.5, "unit": "ng/mL"}]}
